Results as given in patent US20230330045A1 (priority 2020, published 2023).
Where two headings read alike, the source gives them in different places.

How the values were obtained:
[1] = molecular target: eel acetylcholinesterase (AChE) (Electrophorus electricus, UniProt O42275); test: Eel AChE fluorescence assay (AMPLEX Red kit); type: biochemical
Protocol: Enzymatic reactions consisted of 50 μM acetylcholine, 200 μM AIVIPLEX™ Red reagent, 1 U/mL horseradish peroxidase, 0.1 U/mL choline oxidase and 0.096 U/mL acetylcholinesterase, with 30 1% DMSO. […] Control reactions lacking acetylcholinesterase but containing 5 μM H2O2 in presence of compounds were analyzed at the same wavelength to exclude compounds that display assay interference. Dose-response curves were performed in duplicate.

human AChE [2] = molecular target: T1, human AChE (Homo sapiens, UniProt P22303); type: biochemical
human AChE [3] = molecular target: T1, human AChE; type: biochemical; remark: listed apart in the source
[4] = molecular target: human butyrylcholinesterase (BuChE) (Homo sapiens, UniProt P06276); test: Human BuChE colorimetric activity kit assay; type: biochemical
Protocol: Reactions were performed in 384-well plates (781162, Greiner BioOne, GmbH, Kremsmunster, Austria) with 1% DMSO, according to the manufacturer's instructions with a few modifications. Compounds were incubated with enzyme for 30 minutes at room temperature before addition of substrate. Total volume of the reaction was 100 μL, we use 5 μL enzyme and kinetic reactions were performed at 30° C. for 60 minutes using a microplate reader sold under the tradename SPECTRAMAX™ iD5 (Molecular Devices, San Jose, California, United States of America) and an absorbance of 412 nm. Percent activity was calculated by calculating the slope of each reaction as stated above and comparing the positive control (PC) to sample (S): % Relative activity=SlopeS/SlopePCx100. We evaluated if assay reagents could interfere with the absorbance by adding compound or DMSO to a 150 μM solution of 5-thio-2-nitrobenzoic acid and measuring at […].

A2A (h) = A2A (h) (Homo sapiens, UniProt P29274); test: SafetyScreen44 binding assay A2A (h); details: agonist radioligand, read-out: % Inhibition of Specific Control Binding
Source text: (§1) This panel included 38 binding assays and six functional assays of well-established targets and pathways that lead to off-target adverse drug reactions.

alpha 1A (h) = alpha 1A (h) (Homo sapiens, UniProt P35348); test: SafetyScreen44 binding assay alpha 1A (h); details: antagonist radioligand, read-out: % Inhibition of Specific Control Binding
Source text: as §1

alpha 2A (h) = alpha 2A (h) (Homo sapiens, UniProt P08913); test: SafetyScreen44 binding assay alpha 2A (h); details: antagonist radioligand, read-out: % Inhibition of Specific Control Binding
Source text: as §1

beta 1 (h) = beta 1 (h) (Homo sapiens, UniProt P08588); test: SafetyScreen44 binding assay beta 1 (h); details: agonist radioligand, read-out: % Inhibition of Specific Control Binding
Source text: as §1

beta 2 (h) = beta 2 (h) (Homo sapiens, UniProt P07550); test: SafetyScreen44 binding assay beta 2 (h); details: antagonist radioligand, read-out: % Inhibition of Specific Control Binding
Source text: as §1

BZD (central) = test: SafetyScreen44 binding assay BZD (central); details: at 1 μM; agonist radioligand
Source text: as §1

CB1 (h) = CB1 (h) (Homo sapiens, UniProt P21554); test: SafetyScreen44 binding assay CB1 (h); details: agonist radioligand, read-out: % Inhibition of Specific Control Binding
Source text: as §1

CB2 (h) = CB2 (h) (Homo sapiens, UniProt P34972); test: SafetyScreen44 binding assay CB2 (h); details: agonist radioligand, read-out: % Inhibition of Specific Control Binding
Source text: as §1

CCK1 (CCKA) (h) = CCK1 (CCKA) (h) (Homo sapiens, UniProt P32238); test: SafetyScreen44 binding assay CCK1 (CCKA) (h); details: agonist radioligand, read-out: % Inhibition of Specific Control Binding
Source text: as §1

D1 (h) = D1 (h) (Homo sapiens, UniProt P21728); test: SafetyScreen44 binding assay D1 (h); details: antagonist radioligand, read-out: % Inhibition of Specific Control Binding
Source text: as §1

D2S (h) = D2S (h) (Homo sapiens, UniProt P14416); test: SafetyScreen44 binding assay D2S (h); details: agonist radioligand, read-out: % Inhibition of Specific Control Binding
Source text: as §1

ETA (h) = ETA (h) (Homo sapiens, UniProt P25101); test: SafetyScreen44 binding assay ETA (h); details: agonist radioligand, read-out: % Inhibition of Specific Control Binding
Source text: as §1

NMDA = test: SafetyScreen44 binding assay NMDA; details: at 1 μM; antagonist radioligand
Source text: as §1

H1 (h) = H1 (h) (Homo sapiens, UniProt P35367); test: SafetyScreen44 binding assay H1 (h); details: antagonist radioligand, read-out: % Inhibition of Specific Control Binding
Source text: as §1

H2 (h) = H2 (h) (Homo sapiens, UniProt P25021); test: SafetyScreen44 binding assay H2 (h); details: antagonist radioligand, read-out: % Inhibition of Specific Control Binding
Source text: as §1

MAO-A = MAO-A (Rattus norvegicus, UniProt P21396); test: SafetyScreen44 binding assay MAO-A; details: antagonist radioligand, read-out: % Inhibition of Specific Control Binding
Source text: as §1

M1 (h) = M1 (h) (Homo sapiens, UniProt P11229); test: SafetyScreen44 binding assay M1 (h); details: antagonist radioligand, read-out: % Inhibition of Specific Control Binding
Source text: as §1

M2 (h) = M2 (h) (Homo sapiens, UniProt P08172); test: SafetyScreen44 binding assay M2 (h); details: antagonist radioligand, read-out: % Inhibition of Specific Control Binding
Source text: as §1

M3 (h) = M3 (h) (Homo sapiens, UniProt P20309); test: SafetyScreen44 binding assay M3 (h); details: antagonist radioligand, read-out: % Inhibition of Specific Control Binding
Source text: as §1

[5] = molecular target: N neuronal alpha 4beta 2 (h) (Homo sapiens, UniProt P17787+P43681); test: SafetyScreen44 binding assay N neuronal alpha 4beta 2 (h); details: agonist radioligand, read-out: % Inhibition of Specific Control Binding
Source text: as §1

delta (DOP) (h) = delta (DOP) (h) (Homo sapiens, UniProt P41143); test: SafetyScreen44 binding assay delta (DOP) (h); details: agonist radioligand, read-out: % Inhibition of Specific Control Binding
Source text: as §1

kappa (h) (KOP) = kappa (h) (KOP) (Homo sapiens, UniProt P41145); test: SafetyScreen44 binding assay kappa (h) (KOP); details: agonist radioligand, read-out: % Inhibition of Specific Control Binding
Source text: as §1

mu (MOP) (h) = mu (MOP) (h) (Homo sapiens, UniProt P35372); test: SafetyScreen44 binding assay mu (MOP) (h); details: agonist radioligand, read-out: % Inhibition of Specific Control Binding
Source text: as §1

5-HT1A (h) = 5-HT1A (h) (Homo sapiens, UniProt P08908); test: SafetyScreen44 binding assay 5-HT1A (h); details: agonist radioligand, read-out: % Inhibition of Specific Control Binding
Source text: as §1

5-HT1B (h) = 5-HT1B (h) (Homo sapiens, UniProt P28222); test: SafetyScreen44 binding assay 5-HT1B (h); details: antagonist radioligand, read-out: % Inhibition of Specific Control Binding
Source text: as §1

5-HT2A (h) = 5-HT2A (h) (Homo sapiens, UniProt P28223); test: SafetyScreen44 binding assay 5-HT2A (h); details: agonist radioligand, read-out: % Inhibition of Specific Control Binding
Source text: as §1

5-HT2B (h) = 5-HT2B (h) (Homo sapiens, UniProt P41595); test: SafetyScreen44 binding assay 5-HT2B (h); details: agonist radioligand, read-out: % Inhibition of Specific Control Binding
Source text: as §1

5-HT3 (h) = 5-HT3 (h) (Homo sapiens, UniProt P46098); test: SafetyScreen44 binding assay 5-HT3 (h); details: antagonist radioligand, read-out: % Inhibition of Specific Control Binding
Source text: as §1

GR (h) = GR (h) (Homo sapiens, UniProt P04150); test: SafetyScreen44 binding assay GR (h); details: agonist radioligand, read-out: % Inhibition of Specific Control Binding
Source text: as §1

V1a (h) = V1a (h) (Homo sapiens, UniProt P37288); test: SafetyScreen44 binding assay V1a (h); details: agonist radioligand, read-out: % Inhibition of Specific Control Binding
Source text: as §1

[6] = tested on: Ca2+ channel (L, dihydropyridine site); test: SafetyScreen44 binding assay Ca2+ channel (L, dihydropyridine site); details: at 1 μM; antagonist radioligand
Source text: as §1

hERG potassium channel = hERG potassium channel (Homo sapiens, UniProt Q12809); test: SafetyScreen44 binding assay Potassium Channel hERG (human)-[3H] Dofetilide; details: probe [3H] Dofetilide, read-out: % Inhibition of Specific Control Binding
Source text: as §1

KV channel = test: SafetyScreen44 binding assay KV channel; details: at 1 μM; antagonist radioligand
Source text: as §1

Na+ channel (site 2) = test: SafetyScreen44 binding assay Na+ channel (site 2); details: at 1 μM; antagonist radioligand
Source text: as §1

[7] = molecular target: norepinephrine transporter (h) (Homo sapiens, UniProt P23975); test: SafetyScreen44 binding assay norepinephrine transporter (h); details: antagonist radioligand, read-out: % Inhibition of Specific Control Binding
Source text: as §1

dopamine transporter (h) = dopamine transporter (h) (Homo sapiens, UniProt Q01959); test: SafetyScreen44 binding assay dopamine transporter (h); details: antagonist radioligand, read-out: % Inhibition of Specific Control Binding
Source text: as §1

5-HT transporter (h) = 5-HT transporter (h) (Homo sapiens, UniProt P31645); test: SafetyScreen44 binding assay 5-HT transporter (h); details: antagonist radioligand, read-out: % Inhibition of Specific Control Binding
Source text: as §1

COX1(h) = COX1(h) (Homo sapiens, UniProt P23219); test: SafetyScreen44 enzyme assay COX1(h); type: biochemical; details: read-out: % Inhibition of Control Values
Source text: as §1

COX2(h) = COX2(h) (Homo sapiens, UniProt P35354); test: SafetyScreen44 enzyme assay COX2(h); type: biochemical; details: read-out: % Inhibition of Control Values
Source text: as §1

PDE3A (h) = PDE3A (h) (Homo sapiens, UniProt Q14432); test: SafetyScreen44 enzyme assay PDE3A (h); type: biochemical; details: read-out: % Inhibition of Control Values
Source text: as §1

PDE4D2 (h) = PDE4D2 (h) (Homo sapiens, UniProt Q08499); test: SafetyScreen44 enzyme assay PDE4D2 (h); type: biochemical; details: read-out: % Inhibition of Control Values
Source text: as §1

Lck kinase (h) = Lck kinase (h) (Homo sapiens, UniProt P06239); test: SafetyScreen44 enzyme assay Lck kinase (h); type: biochemical; details: read-out: % Inhibition of Control Values
Source text: as §1

acetylcholinesterase (h) = acetylcholinesterase (h) (Homo sapiens, UniProt P22303); test: SafetyScreen44 enzyme assay acetylcholinesterase (h); type: biochemical; details: at 1 μM
Source text: as §1

T1 sequence (P22303 32-614): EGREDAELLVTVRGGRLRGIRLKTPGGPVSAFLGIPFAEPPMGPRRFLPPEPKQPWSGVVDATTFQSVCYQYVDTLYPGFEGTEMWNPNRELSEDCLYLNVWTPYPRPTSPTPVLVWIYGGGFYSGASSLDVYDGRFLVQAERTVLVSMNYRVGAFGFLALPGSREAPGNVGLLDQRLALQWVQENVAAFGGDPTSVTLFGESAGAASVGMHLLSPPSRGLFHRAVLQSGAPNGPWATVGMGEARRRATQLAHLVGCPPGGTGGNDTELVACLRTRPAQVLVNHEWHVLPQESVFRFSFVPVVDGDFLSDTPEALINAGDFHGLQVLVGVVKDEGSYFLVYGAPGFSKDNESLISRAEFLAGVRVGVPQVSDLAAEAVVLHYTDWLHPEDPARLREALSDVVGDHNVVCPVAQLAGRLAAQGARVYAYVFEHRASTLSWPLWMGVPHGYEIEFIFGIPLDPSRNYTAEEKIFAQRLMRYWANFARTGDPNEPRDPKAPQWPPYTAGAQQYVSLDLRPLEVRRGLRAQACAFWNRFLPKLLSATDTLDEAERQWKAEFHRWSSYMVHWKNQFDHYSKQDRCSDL
Chain of eel acetylcholinesterase (AChE) (O42275 24-633): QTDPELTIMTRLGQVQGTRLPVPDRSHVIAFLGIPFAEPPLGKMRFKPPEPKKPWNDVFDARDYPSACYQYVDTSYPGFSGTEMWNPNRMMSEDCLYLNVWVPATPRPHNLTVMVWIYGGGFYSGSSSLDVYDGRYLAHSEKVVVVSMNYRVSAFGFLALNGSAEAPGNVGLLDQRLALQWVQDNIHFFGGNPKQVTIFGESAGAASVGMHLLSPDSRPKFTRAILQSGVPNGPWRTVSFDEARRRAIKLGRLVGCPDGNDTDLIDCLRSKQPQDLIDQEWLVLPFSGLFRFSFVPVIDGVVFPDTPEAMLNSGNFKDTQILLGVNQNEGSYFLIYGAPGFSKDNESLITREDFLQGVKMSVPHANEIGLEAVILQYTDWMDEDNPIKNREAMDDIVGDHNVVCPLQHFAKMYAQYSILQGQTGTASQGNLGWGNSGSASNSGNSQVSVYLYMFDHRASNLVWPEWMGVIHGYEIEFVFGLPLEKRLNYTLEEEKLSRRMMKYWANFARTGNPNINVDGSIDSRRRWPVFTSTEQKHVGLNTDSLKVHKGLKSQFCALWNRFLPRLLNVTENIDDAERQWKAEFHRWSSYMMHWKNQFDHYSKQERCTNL
Chain of human butyrylcholinesterase (BuChE) (P06276 29-602): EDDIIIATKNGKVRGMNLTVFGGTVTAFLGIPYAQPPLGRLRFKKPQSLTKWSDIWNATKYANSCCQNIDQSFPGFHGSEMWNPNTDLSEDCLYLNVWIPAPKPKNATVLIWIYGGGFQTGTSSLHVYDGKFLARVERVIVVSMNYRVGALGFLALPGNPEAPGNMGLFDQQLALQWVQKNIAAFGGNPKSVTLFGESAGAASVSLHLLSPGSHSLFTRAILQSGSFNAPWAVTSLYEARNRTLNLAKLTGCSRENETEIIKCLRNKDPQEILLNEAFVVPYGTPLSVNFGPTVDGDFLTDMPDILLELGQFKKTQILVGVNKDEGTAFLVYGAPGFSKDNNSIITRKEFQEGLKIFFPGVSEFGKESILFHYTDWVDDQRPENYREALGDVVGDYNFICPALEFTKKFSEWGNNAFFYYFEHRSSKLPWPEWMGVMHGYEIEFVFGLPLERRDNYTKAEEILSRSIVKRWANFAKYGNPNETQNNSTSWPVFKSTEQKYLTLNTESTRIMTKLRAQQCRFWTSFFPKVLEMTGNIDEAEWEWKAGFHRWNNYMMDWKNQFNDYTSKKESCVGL
Chain of H2 (h) (P25021 whole entry): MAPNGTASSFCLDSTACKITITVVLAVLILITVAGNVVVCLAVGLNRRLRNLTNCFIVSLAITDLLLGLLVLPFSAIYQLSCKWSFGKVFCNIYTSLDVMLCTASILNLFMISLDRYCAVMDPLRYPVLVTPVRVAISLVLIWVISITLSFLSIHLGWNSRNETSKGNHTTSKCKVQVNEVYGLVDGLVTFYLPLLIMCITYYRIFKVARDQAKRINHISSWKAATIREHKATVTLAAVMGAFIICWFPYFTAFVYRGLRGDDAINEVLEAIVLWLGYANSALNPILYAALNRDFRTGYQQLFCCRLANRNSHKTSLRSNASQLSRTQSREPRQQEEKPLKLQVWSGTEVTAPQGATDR
Chain of 5-HT3 (h) (P46098 24-478): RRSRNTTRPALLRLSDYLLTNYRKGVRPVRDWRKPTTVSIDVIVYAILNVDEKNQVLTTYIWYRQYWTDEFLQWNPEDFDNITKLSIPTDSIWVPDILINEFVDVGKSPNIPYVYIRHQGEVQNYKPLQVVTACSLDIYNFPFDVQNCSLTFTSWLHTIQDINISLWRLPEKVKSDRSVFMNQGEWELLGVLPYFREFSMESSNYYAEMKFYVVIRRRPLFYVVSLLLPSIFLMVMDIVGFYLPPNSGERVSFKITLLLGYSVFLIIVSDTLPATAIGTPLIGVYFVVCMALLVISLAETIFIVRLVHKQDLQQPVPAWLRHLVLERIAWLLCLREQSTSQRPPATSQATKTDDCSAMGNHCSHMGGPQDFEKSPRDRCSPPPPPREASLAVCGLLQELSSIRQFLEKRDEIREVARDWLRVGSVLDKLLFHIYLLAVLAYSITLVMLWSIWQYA
Chain of 5-HT2B (h) (P41595 whole entry): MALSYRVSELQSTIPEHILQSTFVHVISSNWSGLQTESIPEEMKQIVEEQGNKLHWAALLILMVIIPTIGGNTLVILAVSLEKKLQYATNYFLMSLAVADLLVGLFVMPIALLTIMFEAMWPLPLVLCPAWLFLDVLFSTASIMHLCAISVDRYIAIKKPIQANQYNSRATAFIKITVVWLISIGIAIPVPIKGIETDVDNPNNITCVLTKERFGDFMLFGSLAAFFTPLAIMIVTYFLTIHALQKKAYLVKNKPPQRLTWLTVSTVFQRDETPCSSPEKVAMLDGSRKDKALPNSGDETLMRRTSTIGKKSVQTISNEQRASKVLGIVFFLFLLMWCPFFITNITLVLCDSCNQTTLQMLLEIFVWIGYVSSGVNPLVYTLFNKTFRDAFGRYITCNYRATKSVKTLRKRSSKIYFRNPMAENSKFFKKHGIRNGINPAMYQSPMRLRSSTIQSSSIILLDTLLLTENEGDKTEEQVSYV
Chain of dopamine transporter (h) (Q01959 whole entry): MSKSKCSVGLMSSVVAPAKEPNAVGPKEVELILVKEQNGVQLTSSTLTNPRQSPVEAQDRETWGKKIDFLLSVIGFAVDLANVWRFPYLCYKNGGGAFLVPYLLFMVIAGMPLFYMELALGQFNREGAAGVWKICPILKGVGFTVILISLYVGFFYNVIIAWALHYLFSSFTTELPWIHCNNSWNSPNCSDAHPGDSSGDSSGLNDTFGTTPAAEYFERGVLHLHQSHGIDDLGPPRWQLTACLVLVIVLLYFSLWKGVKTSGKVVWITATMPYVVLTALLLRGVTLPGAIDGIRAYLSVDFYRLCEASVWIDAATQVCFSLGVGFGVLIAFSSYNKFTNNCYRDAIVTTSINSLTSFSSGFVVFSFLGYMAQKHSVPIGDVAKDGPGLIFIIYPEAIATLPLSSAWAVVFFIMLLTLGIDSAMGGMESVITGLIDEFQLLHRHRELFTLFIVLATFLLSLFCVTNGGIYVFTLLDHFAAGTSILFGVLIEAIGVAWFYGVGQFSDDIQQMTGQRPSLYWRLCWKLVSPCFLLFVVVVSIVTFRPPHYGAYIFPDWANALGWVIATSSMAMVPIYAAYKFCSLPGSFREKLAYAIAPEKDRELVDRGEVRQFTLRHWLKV
Chain of CB2 (h) (P34972 whole entry): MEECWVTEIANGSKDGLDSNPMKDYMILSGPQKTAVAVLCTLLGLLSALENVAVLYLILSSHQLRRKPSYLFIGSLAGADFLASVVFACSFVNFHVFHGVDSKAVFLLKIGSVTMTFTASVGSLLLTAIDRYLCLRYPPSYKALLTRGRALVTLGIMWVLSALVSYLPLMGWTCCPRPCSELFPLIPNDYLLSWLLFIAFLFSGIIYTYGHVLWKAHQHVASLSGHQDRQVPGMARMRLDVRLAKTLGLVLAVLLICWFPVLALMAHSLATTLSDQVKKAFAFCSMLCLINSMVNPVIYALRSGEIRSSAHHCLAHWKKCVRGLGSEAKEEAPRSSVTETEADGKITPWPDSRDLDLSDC
Chain of PDE4D2 (h) (Q08499 303-809): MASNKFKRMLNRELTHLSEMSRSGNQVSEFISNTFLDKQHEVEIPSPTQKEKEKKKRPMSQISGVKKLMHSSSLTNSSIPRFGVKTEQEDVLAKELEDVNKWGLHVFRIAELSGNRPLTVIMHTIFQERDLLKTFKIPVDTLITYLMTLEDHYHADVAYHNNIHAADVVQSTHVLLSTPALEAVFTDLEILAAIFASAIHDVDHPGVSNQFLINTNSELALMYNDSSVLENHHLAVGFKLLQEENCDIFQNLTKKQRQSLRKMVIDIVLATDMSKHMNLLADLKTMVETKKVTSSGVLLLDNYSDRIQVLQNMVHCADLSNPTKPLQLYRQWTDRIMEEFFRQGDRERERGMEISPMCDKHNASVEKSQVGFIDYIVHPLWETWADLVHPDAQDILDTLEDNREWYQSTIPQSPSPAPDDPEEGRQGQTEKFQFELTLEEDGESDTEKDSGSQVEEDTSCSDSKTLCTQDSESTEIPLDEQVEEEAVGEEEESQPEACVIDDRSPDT
Chain of acetylcholinesterase (h) (P22303 32-614): as the sequence (P22303 32-614) above
Chain of kappa (h) (KOP) (P41145 whole entry): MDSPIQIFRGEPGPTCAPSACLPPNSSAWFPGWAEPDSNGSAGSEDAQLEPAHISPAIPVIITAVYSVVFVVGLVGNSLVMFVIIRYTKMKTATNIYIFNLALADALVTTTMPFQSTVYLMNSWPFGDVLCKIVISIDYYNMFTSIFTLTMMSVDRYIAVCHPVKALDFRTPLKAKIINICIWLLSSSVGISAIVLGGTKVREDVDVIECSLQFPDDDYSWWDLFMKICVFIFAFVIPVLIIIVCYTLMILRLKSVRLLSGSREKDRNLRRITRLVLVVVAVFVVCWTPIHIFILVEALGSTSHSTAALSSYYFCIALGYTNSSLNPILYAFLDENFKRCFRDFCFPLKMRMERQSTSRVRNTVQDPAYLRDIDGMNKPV

CCN(CC)CCOc1ccc2c(c1)C(=O)c1cc(OCCN(CC)CC)ccc1-2 [tilorone]
IC50 ([1]; dose-response, 1% DMSO): 0.0144 µM
inhibition at 20 µM ([1]; eel AChE activity, at 20 μM, read-out: Percentage inhibition): 103%
assay interference test versus enzyme-free H2O2 reaction ([1]; parallel dose-response with 5 μM H2O2): likely represent true inhibition of the enzyme
inhibition at 20 µM ([1]; read-out: inhibition of enzyme activity compared to DMSO control (screen)): ≥ 50%
Hill slope, eel AChE dose-response ([1]; sixteen-point serial dilution, four-parameter fit): 0.62
IC50 (human AChE [2]; average of the colorimetric and Eurofins values, read-out: average IC50 for human AChE): 0.0646 µM
IC50 (human AChE [2]; colorimetric kit, n=2, read-out: IC50 against human AChE (colorimetric assay)): 0.0733 µM
Hill slope, human AChE colorimetric dose-response (human AChE [2]; two-fold 16-point dilution from 20 μM): 0.84
Bottom of curve, Eurofins human AChE (human AChE [3]; % Inhibition of Control Values): −7
Top of curve, Eurofins human AChE (human AChE [3]; % Inhibition of Control Values): 99
IC50 (human AChE [3]; third-party photometric assay, read-out: IC50 against human AChE (Eurofins Discovery)): 0.056 µM
Hill slope, Eurofins human AChE curve (human AChE [3]; two-fold dilution from 5 μM): 1.0
IC50 [4]: > 0.05 µM
inhibition at 100 µM ([4]; at 100 μM, single point, read-out: inhibition of human BChE): 50%
inhibition at 1 µM (A2A (h)): -4%
inhibition at 1 µM (alpha 1A (h)): 26%
inhibition at 1 µM (alpha 2A (h)): 0%
inhibition at 1 µM (beta 1 (h)): 5%
inhibition at 1 µM (beta 2 (h)): -6%
% Inhibition of Specific Control Binding (BZD (central)): −9%
inhibition at 1 µM (CB1 (h)): 0%
inhibition at 1 µM (CB2 (h)): -16%
inhibition at 1 µM (CCK1 (CCKA) (h)): -5%
inhibition at 1 µM (D1 (h)): -10%
inhibition at 1 µM (D2S (h)): 1%
inhibition at 1 µM (ETA (h)): 5%
% Inhibition of Specific Control Binding (NMDA): −10%
inhibition at 1 µM (H1 (h)): -6%
inhibition at 1 µM (H2 (h)): -11%
inhibition at 1 µM (MAO-A): 3%
inhibition at 1 µM (M1 (h)): 28%
inhibition at 1 µM (M2 (h)): 26%
inhibition at 1 µM (M3 (h)): 17%
inhibition at 1 µM [5]: 0%
inhibition at 1 µM (delta (DOP) (h)): 0%
inhibition at 1 µM (kappa (h) (KOP)): 4%
inhibition at 1 µM (mu (MOP) (h)): -4%
inhibition at 1 µM (5-HT1A (h)): 12%
inhibition at 1 µM (5-HT1B (h)): 21%
inhibition at 1 µM (5-HT2A (h)): 25%
inhibition at 1 µM (5-HT2B (h)): -9%
inhibition at 1 µM (5-HT3 (h)): 6%
inhibition at 1 µM (GR (h)): -5%
inhibition at 1 µM (V1a (h)): -1%
% Inhibition of Specific Control Binding [6]: 4%
inhibition at 1 µM (hERG potassium channel): -4%
% Inhibition of Specific Control Binding (KV channel): 0%
% Inhibition of Specific Control Binding (Na+ channel (site 2)): 1%
inhibition at 1 µM [7]: 14%
inhibition at 1 µM (dopamine transporter (h)): -9%
inhibition at 1 µM (5-HT transporter (h)): 44%
inhibition at 1 µM (COX1(h)): -17%
inhibition at 1 µM (COX2(h)): -1%
inhibition at 1 µM (PDE3A (h)): 2%
inhibition at 1 µM (PDE4D2 (h)): -15%
inhibition at 1 µM (Lck kinase (h)): 13%
% Inhibition of Control Values (acetylcholinesterase (h)): 92%
